According to US20200247855A1, “THERAPY AND DIAGNOSTICS” (OXFORD UNIVERSITY INNOVATION LIMITED, priority 2017, published 2020):
pIC50: −log10 of the molar value. No end group written: not given here.

Biological target: T1, CCL8_HUMAN (Homo sapiens, UniProt P80075)
T1 sequence (P80075 24-99): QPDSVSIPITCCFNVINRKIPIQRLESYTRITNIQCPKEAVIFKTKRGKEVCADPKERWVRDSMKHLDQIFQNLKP
Experiment: Neutralisation of chemokine induced THP-1 cell migration
Assay type: cell-based
Experimental: Table 1. Tick CKBPs described in PCT/GB2017/050563 and [17]. Tick peptide sequences isolated in yeast surface display fluorescent-activated cell sorting (FACS) screens using a labelled chemokine. Identity with Evasin-1, 4 or 3 was calculated using BLAST. Abbreviations: IXORI—Ixodes ricinus, RHISA—Rhipicephalus sanguineus, AMBMA—Amblyomma maculatum, AMBPA—Amblyomma parvum, AMBTR—Amblyomma triste, AMBAM—Amblyomma americanum, AMBCA—Amblyomma cajennense, RHIPU—Rhipicephalus pulchellus. Table 2A-C. Binding characteristics of tick CKBPs previously disclosed (PCT/GB2017/050563 and [17]). All members of the human chemokine family[164] are listed in column 1. Binding to human chemokines was determined for 14 tick CKBPs using biolayer interferometry (BLI) with calculated Kd shown as Molar (Moles/Litre). Binding data for 17 other novel tick CKBPs was assayed using yeast surface display[17,166],with positive binding results shown as “YES”. For biolayer interferometry, His-tagged purified tick CKBP was bound to a Ni-NINTA sensor on an OctetRed® 384 system, and then binding to each chemokine listed (with the exception of CCL25, CCL26, CXCL16, CXCL17, CXCL4L1, XCL2) was assayed in a cross-binding screen at a chemokine concentration of 300 nM as described. For those chemokines showing binding to a tick CKBP in the cross-binding screen, binding assays were repeated using different doses of chemokine. Association, equilibrium and dissociation data were analysed using Octet software to create corresponding fitted curves, and used to calculate Kd. For yeast surface display, (YSD) background fluorescence was controlled for by using either an empty vector or by omitting the chemokine (i.e. using streptavidin-Alexa647 alone). An arbitrary threshold of >3 fold over background mean fluorescence intensity was chosen to describe confirmed re-tests. Where binding was detected data are indicated as “YES”. […] For yeast surface display data, empty cells represent chemokines that were not tested. Binding data published in relation to previously described tick CKBPs (Evasins-1, 4 and 3) is also shown for comparison in each of FIGS. 2A-C, with the relevant data obtained from publications: [20-22,32]. Table 3: Neutralisation of human chemokines by tick CKBPs previously disclosed (PCT/GB2017/050563 and [17]). Neutralising activity was determined using a quantitative THP1 cell migration assay in a 96-well Boyden chamber with chemokine in the bottom chamber as described. Cells migrating through to the bottom chamber at 4 hours were counted using flow cytometry in a 96 well plate format. IC50 for neutralisation was determined at the chemokine EC80 dose as determined using a range of tick CKBP concentrations. Data was analysed using GraphPad Prism to determine IC50, which is shown as Molar (Moles/Litre). Empty cells represent experiments not done. Table 4—Other previously described tick CKBPs. Tick CKBPs that were also described in PCT/GB2017/050563 and Singh et al. are indicated in “Notes”. Table 5.—Novel tick CKBPs of the invention. Table 6. […] The peptide sequence prefix indicates the identity, and suffix indicate the tick species as follows: AMBCA, Amblyomma cajennense and IXORI, Ixodes ricinus. […] Individual yeast clones recovered from the library were re-tested using a FACS (fluorescence activated cell sorting), experiment. The binding of the peptide to the chemokine was assayed by measuring the percent (%), of yeast cells expressing the given peptide that exceeded a background threshold set by measuring the fluorescence of the yeast library pool treated with streptavidin-[…] alone. When more than one independent yeast clone was isolated for a given peptide-chemokine combination, the mean percent shift was calculated and reported in column 3.

Q: How did the pIC50 turn out when EDEDYEDFFKPVTAYF-NH2 [BK1.1] was run?
A: Its pIC50 is 6.29.
